{"source": "paper PMC11207335", "about": "“In Vitro Metabolism and Transport Characteristics of Zastaprazan” (Pharmaceutics, 2024)", "key": {"OCT1": {"target": "T1, OCT1 (Homo sapiens, UniProt O15245)", "T1 sequence (O15245 1-554)": "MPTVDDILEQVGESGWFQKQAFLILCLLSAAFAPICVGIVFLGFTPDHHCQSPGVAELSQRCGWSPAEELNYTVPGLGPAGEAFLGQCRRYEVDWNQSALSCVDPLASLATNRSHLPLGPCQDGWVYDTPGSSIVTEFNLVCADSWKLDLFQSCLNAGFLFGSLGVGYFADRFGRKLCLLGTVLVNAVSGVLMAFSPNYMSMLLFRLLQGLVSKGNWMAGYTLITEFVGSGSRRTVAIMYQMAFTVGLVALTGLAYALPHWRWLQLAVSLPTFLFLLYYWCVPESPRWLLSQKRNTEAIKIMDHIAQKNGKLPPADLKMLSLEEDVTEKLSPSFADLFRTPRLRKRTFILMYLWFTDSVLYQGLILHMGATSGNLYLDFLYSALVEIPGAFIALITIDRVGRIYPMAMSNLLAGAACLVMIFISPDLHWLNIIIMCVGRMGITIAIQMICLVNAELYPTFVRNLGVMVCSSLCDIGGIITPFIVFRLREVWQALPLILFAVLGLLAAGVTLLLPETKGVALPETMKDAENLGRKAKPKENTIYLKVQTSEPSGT", "experiment": "Uptake into HEK293 cells expressing OCT1", "conditions": "for Uptake Rate / Fold-Change: 6 μM; for Fold-Change: vs HEK293-mock; for Substrate: OCT1"}, "[1]": {"target": "T2, human cDNA-expressed CYP2C8 (Homo sapiens, UniProt P10632)", "T2 construct": "purchased Corning Life Sciences", "T2 sequence (P10632 1-490)": "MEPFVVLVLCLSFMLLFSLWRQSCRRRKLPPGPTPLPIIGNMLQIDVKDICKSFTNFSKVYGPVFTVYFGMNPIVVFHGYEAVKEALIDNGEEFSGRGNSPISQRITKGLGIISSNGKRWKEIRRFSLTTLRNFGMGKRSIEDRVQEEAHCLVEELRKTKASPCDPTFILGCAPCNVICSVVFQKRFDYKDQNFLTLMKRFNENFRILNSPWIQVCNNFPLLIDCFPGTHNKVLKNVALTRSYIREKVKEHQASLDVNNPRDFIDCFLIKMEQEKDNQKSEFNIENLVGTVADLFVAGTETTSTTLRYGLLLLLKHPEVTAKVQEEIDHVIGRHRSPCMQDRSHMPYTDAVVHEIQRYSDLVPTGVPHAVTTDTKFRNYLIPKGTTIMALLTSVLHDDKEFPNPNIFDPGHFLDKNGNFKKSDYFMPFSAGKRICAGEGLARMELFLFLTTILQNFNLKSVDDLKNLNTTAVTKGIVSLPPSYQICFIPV", "experiment": "Enzyme kinetics of JP-1366 metabolism in cDNA-expressed CYP2C8", "format": "in vitro ADME", "description": "(§1) The reaction was initiated by adding 5 μL of NADPH-generating system in triplicate, and the mixture was further incubated for 30 min at 37 °C in a shaking water bath.\n(§2) The concentrations of the metabolites were quantitated, and their formation rates (pmol/mg protein/min) were calculated by dividing the amounts of metabolites formed from the incubation with human liver microsomes and human cDNA-expressed CYP or UGT enzymes by the incubation time."}, "[2]": {"target": "T3, human cDNA-expressed CYP3A4 (Homo sapiens, UniProt P08684)", "T3 construct": "purchased Corning Life Sciences", "T3 sequence (P08684 whole entry)": "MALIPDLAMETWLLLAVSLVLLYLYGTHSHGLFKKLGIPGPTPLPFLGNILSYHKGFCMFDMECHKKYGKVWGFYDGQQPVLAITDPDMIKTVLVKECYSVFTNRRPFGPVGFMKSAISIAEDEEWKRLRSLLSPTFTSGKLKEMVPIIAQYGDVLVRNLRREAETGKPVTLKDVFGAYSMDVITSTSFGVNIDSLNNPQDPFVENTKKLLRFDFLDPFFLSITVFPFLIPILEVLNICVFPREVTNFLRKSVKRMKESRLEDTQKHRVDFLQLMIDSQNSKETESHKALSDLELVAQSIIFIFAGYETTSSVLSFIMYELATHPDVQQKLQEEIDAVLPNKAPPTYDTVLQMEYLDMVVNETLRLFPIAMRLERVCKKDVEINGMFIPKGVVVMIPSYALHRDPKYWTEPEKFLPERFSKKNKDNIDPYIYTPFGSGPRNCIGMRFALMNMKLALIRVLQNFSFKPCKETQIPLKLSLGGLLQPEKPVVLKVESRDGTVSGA", "experiment": "Enzyme kinetics of JP-1366 metabolism in cDNA-expressed CYP3A4", "format": "in vitro ADME", "description": "as §1, §2"}, "BCRP": {"target": "T4, BCRP (Homo sapiens, UniProt Q9UNQ0)", "T4 construct": "host or cells: LLC-PK1 (porcine kidney cells)", "T4 sequence (Q9UNQ0 1-655)": "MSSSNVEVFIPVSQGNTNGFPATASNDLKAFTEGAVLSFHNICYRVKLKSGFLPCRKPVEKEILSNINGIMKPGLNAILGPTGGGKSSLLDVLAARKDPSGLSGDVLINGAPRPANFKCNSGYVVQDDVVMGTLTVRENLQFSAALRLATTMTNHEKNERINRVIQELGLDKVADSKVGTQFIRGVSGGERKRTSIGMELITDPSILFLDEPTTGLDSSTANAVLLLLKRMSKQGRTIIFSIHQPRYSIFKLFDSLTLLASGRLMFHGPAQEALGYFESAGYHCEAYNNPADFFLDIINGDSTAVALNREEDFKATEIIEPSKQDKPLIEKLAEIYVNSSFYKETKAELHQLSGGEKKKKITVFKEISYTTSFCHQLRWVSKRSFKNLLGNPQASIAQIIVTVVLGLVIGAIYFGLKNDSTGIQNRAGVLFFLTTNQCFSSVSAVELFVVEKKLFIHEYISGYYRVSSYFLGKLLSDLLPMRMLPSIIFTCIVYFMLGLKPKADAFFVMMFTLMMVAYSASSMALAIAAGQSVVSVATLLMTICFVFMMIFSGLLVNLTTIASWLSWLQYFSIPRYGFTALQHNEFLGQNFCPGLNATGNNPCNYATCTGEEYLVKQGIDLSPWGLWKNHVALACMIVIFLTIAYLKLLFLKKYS", "experiment": "Permeability in LLC-PK1-BCRP cells", "format": "in vitro ADME", "conditions": "for Substrate: BCRP", "description": "LLC-PK1-P-gp or BCRP cells were seeded on collagen-coated 24-transwell membranes at a density of 2.5 × 10^5 cells/mL and maintained at 37 °C in a humidified atmosphere with 5% CO2/95% air for 5 days in Medium 199 supplemented with 10% […], 50 μg/mL of gentamycin, and 50 μg/mL of hygromycin. The culture medium was replaced every other day. On the day of the experiment, the growth medium was discarded, and the attached cells were washed with prewarmed HBSS (pH 7.4) and preincubated with HBSS for 20 min at 37 °C. […] Aliquots (0.1 mL) in the apical side were transferred to clean tubes every 15 min for 1 h and replaced with an equal volume of fresh HBSS.\nLLC-PK1-P-gp or BCRP cells were seeded on collagen-coated 24-transwell membranes at a density of 2.5 × 10^5 cells/mL and cultured for 5 days. The growth medium was discarded on the day of the experiment, and the attached cells were washed with prewarmed HBSS (pH 7.4) and preincubated with HBSS for 20 min at 37 °C. […] Aliquots (0.1 mL) in the apical side were transferred to clean tubes every 15 min for 1 h and replaced with an equal volume of fresh HBSS. Aliquots (30 μL) of each sample were vortex-mixed with 90 μL of IS solution for 1 min, and then centrifugation was performed at 13,500 rpm at 4 °C for 5 min. Aliquots (5 μL) of the supernatant were injected into the LC-MS/MS for analysis.\nThe permeability (Papp) was calculated from the following equation [23, 24]: Papp(cm/s)=transport ratenmol/s/JP−1366 or M1 concentration (μM)×surface area of membrane (cm^2)"}, "[3]": {"test_system": "histamine-stimulated gastric acid secretion", "design": "method as in PMID 36504556", "conditions": "Heidenhain pouch dog model; cited from earlier work"}, "[4]": {"conditions": "formation of the labelled metabolite from JP-1366, CYP3A4"}, "[5]": {"conditions": "pig, pH 7.4, with Ko134 1 μM, LLC-PK1-BCRP, Ko134 1 μM"}, "[6]": {"conditions": "pig, pH 7.4, LLC-PK1-BCRP, Control"}}, "data": [{"smiles": "Cc1cccc(CO)c1CNc1cc(C(=O)N2CCC2)cn2c(C)c(C)nc12", "note": "[M1, azetidin-1-yl(8-((2-(hydroxymethyl)-6-methyl-benzyl)amino)-2,3-dimethylimidazo[1,2-a]pyridin-6-yl)methanone]", "values": [{"measurement": "Uptake Rate", "setting": "OCT1; HEK293-OCT1, cimetidine 100 μM", "value": "82.01 ± 3.72", "unit": "pmol/min/10^5 Cells"}, {"measurement": "Fold-Change", "setting": "OCT1; HEK293-OCT1, cimetidine 100 μM", "value": 1.6}, {"measurement": "Uptake Rate", "setting": "OCT1; HEK293-OCT1, control", "value": "82.43 ± 3.59", "unit": "pmol/min/10^5 Cells"}, {"measurement": "Fold-Change", "setting": "OCT1; HEK293-OCT1, control", "value": 1.6}, {"measurement": "Substrate", "setting": "OCT1", "value": "No"}, {"measurement": "CLint", "setting": "[1]; formation of the labelled metabolite from JP-1366, CYP2C8", "value": 0.031, "unit": "μL/min/pmol CYP"}, {"measurement": "Contribution (%)", "setting": "[1]; relative contribution of CYP2C8 to formation of the labelled metabolite", "value": 3.7, "unit": "%"}, {"measurement": "Ki", "setting": "[1]; substrate inhibition kinetics, formation of the labelled metabolite, CYP2C8", "value": 197, "unit": "µM"}, {"measurement": "CLint", "setting": "[2]; [4]", "value": 0.35, "unit": "μL/min/pmol CYP"}, {"measurement": "n (Hill coefficient)", "setting": "[2]; [4]", "value": 2.9}, {"measurement": "Contribution (%)", "setting": "[2]; relative contribution of CYP3A4 to formation of the labelled metabolite", "value": 17.3, "unit": "%"}, {"measurement": "Substrate", "setting": "BCRP", "value": "No"}, {"measurement": "Papp A→B at 1 h, 4 µM", "setting": "BCRP; [5]", "value": "32 ± 2.84", "unit": "×10⁻⁶ cm/s"}, {"measurement": "Papp B→A at 1 h, 4 µM", "setting": "BCRP; [5]", "value": "47.3 ± 1.39", "unit": "×10⁻⁶ cm/s"}, {"measurement": "Papp A→B at 1 h, 4 µM", "setting": "BCRP; [6]", "value": "31.7 ± 3.39", "unit": "×10⁻⁶ cm/s"}, {"measurement": "Papp B→A at 1 h, 4 µM", "setting": "BCRP; [6]", "value": "33.8 ± 3.45", "unit": "×10⁻⁶ cm/s"}, {"measurement": "efflux ratio at 1 h", "setting": "BCRP; pig, pH 7.4, LLC-PK1-BCRP, concentration range of 0.3–85 μM, read-out: ER", "value": "1.1 to 1.7"}]}, {"smiles": "Cc1cccc(C)c1CNc1cc(C(=O)N2CCC2)cn2c(C)c(C)nc12", "note": "[JP-1366, 1-azetidinyl(8-(((2,6-dimethylphenyl)methyl)amino)-2,3-dimethylimidazo(1,2-a)pyridin-6-yl)methanone]", "values": [{"measurement": "Uptake Rate", "setting": "OCT1; HEK293-OCT1, cimetidine 100 μM", "value": "82.01 ± 3.72", "unit": "pmol/min/10^5 Cells"}, {"measurement": "Uptake Rate", "setting": "OCT1; HEK293-OCT1, control", "value": "82.43 ± 3.59", "unit": "pmol/min/10^5 Cells"}, {"measurement": "Substrate", "setting": "OCT1", "value": "No"}, {"measurement": "Substrate", "setting": "BCRP", "value": "No"}, {"measurement": "Papp A→B at 1 h, 4 µM", "setting": "BCRP; [5]", "value": "13.6 ± 0.54", "unit": "×10⁻⁶ cm/s"}, {"measurement": "Papp B→A at 1 h, 4 µM", "setting": "BCRP; [5]", "value": "22.6 ± 0.47", "unit": "×10⁻⁶ cm/s"}, {"measurement": "Papp A→B at 1 h, 4 µM", "setting": "BCRP; [6]", "value": "14.8 ± 1.23", "unit": "×10⁻⁶ cm/s"}, {"measurement": "Papp B→A at 1 h, 4 µM", "setting": "BCRP; [6]", "value": "20.5 ± 3.95", "unit": "×10⁻⁶ cm/s"}, {"measurement": "inhibition of histamine-stimulated gastric acid secretion", "setting": "[3]", "value": "equal to or higher than vonoprazan"}]}]}
